The term IC50 denotes the point on the concentration scale where inhibition reaches its midpoint. A lower IC50 goes with greater potency.

Data set [1] concerns SARS-COV-2 Alpha. The data set can be described thus: Rechallenge with active SARS-COV-2 Alpha after EVE18 inactivated SARS-COV-2 Alpha (homologous). The format is in vivo, female hACE2 Knock-in mice. Particulars: rechallenge with 54000 pfu SARS-COV-2 Alpha eight weeks after initial challenge; 14 days.
For the next data set, the system named is H1N1A-California. Format: in vivo, female C57BL/6J mice.
The test system of data set [2] is SARS-COV-2 Delta. The data set can be described thus: Rechallenge with active SARS-COV-2 Delta after EVE18 inactivated SARS-COV-2 Alpha (heterologous). The format is in vivo, female hACE2 Knock-in mice. Particulars: rechallenge with 54000 pfu SARS-COV-2 Delta nine and seven weeks after initial challenge; two groups; 14 days.
Data set [3] deals with SARS-COV-2 Alpha. The data set can be described thus: SARS-COV-2 Alpha pre-incubated with peptide and given intranasally to mice. Format: in vivo, female hACE2 Knock-in mice. The settings on record: 54000 pfu pre-incubated ~45 min with 10 μM peptide; intranasal; 14 days.
Data set [4] has as its system SARS-COV-2 Alpha. The data set can be described thus: Therapeutic dosing of EVE18 in mice challenged with SARS-COV-2 Alpha. Format: in vivo, female hACE2 Knock-in mice.
Data set [5] relates to H1N1. The data set can be described thus: Second challenge with active H1N1 after intranasal peptide-inactivated H1N1. The format is in vivo, female C57BL/6J mice. Particulars: 14 days.
The test system of data set [6] is SARS-COV-2 Delta. The data set can be described thus: SARS-COV-2 Delta pre-incubated with EVE18 and given intranasally to mice. Format: in vivo, female hACE2 Knock-in mice. Particulars: 54000 pfu SARS-COV-2 Delta pre-incubated ~45 min with 10 μM peptide; intranasal; 14 days.
Data set [7] concerns H1N1. The data set can be described thus: Second H1N1 challenge of mice that received H1N1 and sub-cutaneous EVE14. The format is in vivo, female C57BL/6J mice. Particulars: second challenge 1200 pfu H1N1 three weeks after the first.
Data set [8] relates to H1N1. The data set can be described thus: Sub-cutaneous EVE14 in mice challenged intranasally with H1N1. Format: in vivo, female C57BL/6J mice.
In data set [9] the test system is SARS-COV-2 Alpha. The settings on record: for IC50: Alpha.
Data set [10] has as its system SARS-COV-2 Alpha. Briefly: Remdizivir treatment of mice challenged with SARS-COV-2 Alpha. Format: in vivo, female hACE2 Knock-in mice. Particulars: 25 mg/kg bodyweight, single dose; 54000 pfu intranasal; untreated mice 20%.
The subject of the next data set is Vero-E6 cells. The data set can be described thus: Cytotoxic effects in Vero-E6 cells (Reliablue viability). Format: cell-based. The procedure: Data for peptide 4F (Ac-[…]-NH2; SEQ ID NO: 34) is also provided. In this example, Vero-E6 cells (96 well plate) were grown in EMEM containing 10% FBS and Pen/Strep at 37° C. and 5% CO2. Once cells reached 80% confluence, medium was replaced with fresh complete medium containing the indicated concentration of peptide (FIGS. 6A-B) or peptide complexed with DMPC (1:5 ratio weight:weight). Incubation period proceeded for 24 or 48 hrs. Cells were washed and replaced with complete medium containing fluorescent Reliablue reagent. Viability was then measured. Data are presented as percent viability compared to control (no additions). Results are presented as the mean±SEM.

Where [11] appears, read: 300 micrograms sub-cutaneous 2 hr prior to virus and second dose 24 hr after virus.
Setting [12] is: [peptide-lipid] complex (DMPC 1:5 weight:weight), 48 hours incubation.

Where two headings read alike, the source gives them in different places. Peptide text beside a SMILES is read from it.

On to Ac-GFRRFYGSIWRFIRAFVG-NH2 [EVE18], for which the rechallenged mice survived with SARS-COV-2 Alpha [1] is about 75%. Further, in the data set on H1N1A-California (14 days), the bodyweight loss result was “No mouse in this group died or lost significant bodyweight”. The “mortality (frank mortality or weight loss of 25%)” value with H1N1A-California (14 days) is on record as “No mouse in this group died”. The survival is 85% in the data set with SARS-COV-2 Delta [2]; “All mice in this group survived” in the data set with SARS-COV-2 Alpha [3]; 50% with SARS-COV-2 Alpha [4] (300 micrograms 24 hr, 48 hr and 72 hrs after 54000 pfu virus, 10 days, virus alone 20%); 70% in the data set on SARS-COV-2 Alpha [4] (setting [11]); “All mice in this group survived” with SARS-COV-2 Delta [6]. In addition, the “mortality (timing)” value in the data set with SARS-COV-2 Alpha [4] (300 micrograms 24 hr, 48 hr and 72 hrs after 54000 pfu virus) is on record as “delayed mortality”; in the data set with SARS-COV-2 Alpha [4] (setting [11]), “delayed the mortality”. Moreover, in the data set on H1N1 [5] (mice first given peptide-treated H1N1 (~45 min, ~10 μM), rechallenged several weeks later with 1200 pfu active H1N1A-California), the mortality after rechallenge entry is “No mouse in this group died during this period”.
Regarding Ac-RRFYGSIWRFIRAF-NH2 [EVE14], in the data set with H1N1A-California (14 days), the bodyweight loss entry is “incapable of inducing weight loss or frank death”, the “death (frank death or 25% decrease in bodyweight)” value is on record as “incapable of inducing death”, the “mortality (frank mortality or weight loss of 25%)” value is “No mice in this group died” and the weight loss result is listed as “incapable of inducing weight loss”. Further, in the data set with H1N1A-California (mouse, in vivo), the survival result was “survived this initial challenge” and the weight loss entry is reported as “lost little weight”. Further, in the data set on SARS-COV-2 Alpha [3], the mice survived result is “Ninety”. For the same compound, the “mortality or weight loss after second challenge” value in the data set on H1N1 [7] is “does not elicit mortality or weight loss”. For the same compound, the “bodyweight loss after second challenge” value in the data set on H1N1 [5] (mice first given H1N1A pre-incubated with peptide for 60 minutes, second challenge 1200 pfu active H1N1 several weeks later) is listed as “no mouse in the group which underwent a second H1N1 challenge lost significant bodyweight”. For the same compound, in the data set with H1N1 [8] (300 micrograms sub-cutaneously plus 150 microgram boosters (24, 48 hr or 24-96 hr), 1200 pfu H1N1 intranasal, compared to untreated mice), the weight loss result is “significant delay in their weight loss which also was blunted”. Also, in the data set with H1N1 [8] (Example 13, FIG. 14: 1200 pfu H1N1 intranasal, peptide sub-cutaneously), the weight loss entry is “much reduced weight loss”. For the same compound, the “survival (or bodyweight loss of less than 25%)” value with H1N1 [8] (both sub-cutaneous treatment groups compared to H1N1 alone) is given as “significantly increased survival”.
As for `CCC(CC)COC(=O)[C@H](C)N[P@](=O)(OC[C@H]1O[C@@](C#N)(c2ccc3c(N)ncnn23)[C@H](O)[C@@H]1O)Oc1ccccc1` [remdesivir, reference compound], the “reduction of the SARS-COV-2 positive area” value in the data set with SARS-COV-2 Alpha [9] (1 μM) is “approximately 65%”. The same compound came in with a mouse survival in the data set on SARS-COV-2 Alpha [10] of 40%.
Regarding `CC(=O)N[C@@H](CC(C)C)C(=O)N[C@@H](CCCNC(=N)N)C(=O)N[C@@H](CCCCN)C(=O)N[C@@H](CC(C)C)C(=O)N[C@@H](CCCNC(=N)N)C(=O)N[C@@H](CCCCN)C(=O)N[C@@H](CCCNC(=N)N)C(=O)N[C@@H](CC(C)C)C(=O)N[C@@H](CC(C)C)C(=O)N[C@@H](CCCNC(=N)N)C(=O)N[C@@H](CC(=O)O)C(=O)N[C@@H](Cc1c[nH]c2ccccc12)C(=O)N[C@@H](CC(C)C)C(=O)N[C@@H](CCCCN)C(=O)N[C@@H](C)C(=O)N[C@@H](Cc1ccccc1)C(=O)N[C@@H](Cc1ccc(O)cc1)C(=O)N[C@@H](CC(=O)O)C(=O)N[C@@H](CCCCN)C(=O)N[C@H](C(=O)N[C@@H](C)C(=O)N[C@@H](CCC(=O)O)C(=O)N[C@@H](CCCCN)C(=O)N[C@@H](CC(C)C)C(=O)N[C@@H](CCCCN)C(=O)N[C@@H](CCC(=O)O)C(=O)N[C@@H](C)C(=O)N[C@@H](Cc1ccccc1)C(N)=O)C(C)C` [EVE4] (Ac-LRKLRKRLLRDWLKAFYDKVAEKLKEAF-NH2), the “antiviral activity in comparison to remdesivir” value in the data set on SARS-COV-2 Alpha [9] is “greater antiviral activity than remdesivir”. Moreover, the “SARS-COV-2 positive area reduced to” value in the data set with SARS-COV-2 Alpha [9] (1 μM) was about 0. Moreover, the IC50 in the data set on SARS-COV-2 Alpha [9] lay in the range of 3 to 4.5 µM. The cytotoxic effects entry was “lack of cytotoxic effects” in the data set with Vero-E6 cells (setting [12]); “lack of cytotoxic effects” in the data set on Vero-E6 cells (peptide, 24 hours incubation); “lack of cytotoxic effects” in the data set with Vero-E6 cells (peptide, 48 hours incubation).
Turning to `CC[C@H](C)[C@H](NC(=O)[C@H](CCCNC(=N)N)NC(=O)[C@H](C)NC(=O)[C@H](Cc1c[nH]c2ccccc12)NC(=O)[C@H](CO)NC(=O)CNC(=O)[C@H](CC(C)C)NC(=O)[C@H](Cc1ccccc1)NC(=O)[C@H](CCCNC(=N)N)NC(=O)[C@H](CCCNC(=N)N)NC(=O)[C@H](Cc1ccccc1)NC(=O)CNC(C)=O)C(=O)N[C@@H](Cc1ccc(O)cc1)C(=O)N[C@@H](CCCNC(=N)N)C(=O)N[C@@H](C)C(=O)N[C@@H](Cc1ccccc1)C(=O)N[C@H](C(=O)NCC(N)=O)C(C)C` [EVEmR18L, Ac-GFRRFLGSWARIYRAFVG-NH2] (Ac-GFRRFLGSWARIYRAFVG-NH2), the “antiviral activity in comparison to remdesivir” value with SARS-COV-2 Alpha [9] was “greater antiviral activity than remdesivir”. In the data set on SARS-COV-2 Alpha [9] (1 μM), the “reduction of the SARS-COV-2 positive area” value is “approximately 80%”. The “SARS-COV-2 positive area reduced to” value in the data set with SARS-COV-2 Alpha [9] (10 μM) is about 0. In addition, the IC50 with SARS-COV-2 Alpha [9] was 3 to 4.5 µM. Further, the cytotoxic effects entry is on record as “lack of cytotoxic effects” in the data set on Vero-E6 cells (setting [12]); “lack of cytotoxic effects” in the data set with Vero-E6 cells (peptide, 24 hours incubation); “lack of cytotoxic effects” with Vero-E6 cells (peptide, 48 hours incubation).

These data come from patent US20260014246A1, “TREATMENT METHODS FOR VIRAL INFECTIONS” (priority 2022, published 2026).
